ChEMBL document CHEMBL3046319, “PCR-RFLP detection of the E198A mutation conferring resistance to benzimidazoles in field isolates of Monilinia laxa from Greece” (Crop Prot, 2012)
≈ marks a conversion by molar mass, not a printed value. Calls of active or inactive are those of the source. The calls are words filed in the database; no cut-off is given here.

Columns and labels:
Monilinia laxa [1] = experiment: Fungicidal activity against Monilinia laxa isolate MLBO2 assessed as reduction in mycelial growth rate at 1 to 10 ug/ml at 31 degC after 5 days; type: functional, organism-based
Monilinia laxa [2] = experiment: Fungicidal activity against Monilinia laxa isolate MLG7 assessed as reduction in mycelial growth rate at 25 degC after 4 days; type: functional, organism-based; conditions: isolate MLG7, 96 h
Monilinia laxa [3] = experiment: Fungicidal activity against Monilinia laxa isolate MLBO7 assessed as reduction in mycelial growth rate at 25 degC after 4 days; type: functional, organism-based; conditions: isolate MLBO7, 96 h
Monilinia laxa [4] = experiment: Fungicidal activity against Monilinia laxa isolate MLG1 assessed as mycelial growth at 1 ug/ml at 25 degC after 4 days; type: functional
Monilinia laxa [5] = experiment: Fungicidal activity against Monilinia laxa isolate MLK4A assessed as reduction in mycelial growth rate at 1 to 10 ug/ml at 31 degC after 5 days; type: functional, organism-based
Monilinia laxa [6] = experiment: Fungicidal activity against Monilinia laxa isolate MLK4 assessed as reduction in mycelial growth rate at 25 degC after 4 days; type: functional, organism-based; conditions: isolate MLK4, 96 h
Monilinia laxa [7] = experiment: Fungicidal activity against Monilinia laxa isolate MLA1 assessed as mean number of conidia produced in the colony at 25 degC after 12 days by haemocytometer; type: functional
Monilinia laxa [8] = experiment: Fungicidal activity against Monilinia laxa isolate KX4 assessed as reduction in mycelial growth rate at 1 to 10 ug/ml at 31 degC after 5 days; type: functional, organism-based
Monilinia laxa [9] = experiment: Fungicidal activity against Monilinia laxa isolate MLP2 assessed as reduction in mycelial growth rate at 25 degC after 4 days; type: functional, organism-based; conditions: isolate MLP2, 96 h
Monilinia laxa [10] = experiment: Fungicidal activity against Monilinia laxa isolate MLNS1 assessed as reduction in mycelial growth rate at 1 to 10 ug/ml at 25 to 28 degC; type: functional, organism-based
Monilinia laxa [11] = experiment: Fungicidal activity against Monilinia laxa isolate MLX5 assessed as mean number of conidia produced in the colony at 25 degC after 12 days by haemocytometer; type: functional
Monilinia laxa [12] = experiment: Fungicidal activity against Monilinia laxa isolate MLK12 assessed as mean mycelial colony diameter at 25 degC after 4 days; type: functional
Monilinia laxa [13] = experiment: Fungicidal activity against Monilinia laxa isolate MLP4 assessed as reduction in mycelial growth rate at 1 to 10 ug/ml at 25 to 28 degC; type: functional, organism-based
Monilinia laxa [14] = experiment: Fungicidal activity against Monilinia laxa isolate MLNS1 assessed as reduction in mycelial growth rate at 1 to 10 ug/ml at 31 degC after 5 days; type: functional, organism-based
Monilinia laxa [15] = experiment: Fungicidal activity against Monilinia laxa isolate MLK4 assessed as reduction in mycelial growth rate at 1 to 10 ug/ml at 25 to 28 degC; type: functional, organism-based
Monilinia laxa [16] = experiment: Fungicidal activity against Monilinia laxa isolate MLG1 in prune fruits assessed as virulence treated 10 min prior to mycelial inoculation at 24 degC after 10 days relative to isolate MLX1by pathogenicity bioassay; type: functional
Monilinia laxa [17] = experiment: Fungicidal activity against Monilinia laxa isolate MLX4 assessed as reduction in mycelial growth rate at 25 degC after 4 days; type: functional, organism-based; conditions: isolate MLX4, 96 h
Monilinia laxa [18] = experiment: Fungicidal activity against Monilinia laxa isolate MLG3 assessed as reduction in mycelial growth rate at 25 degC after 4 days; type: functional, organism-based; conditions: isolate MLG3, 96 h
Monilinia laxa [19] = experiment: Fungicidal activity against Monilinia laxa isolate MLX1 assessed as reduction in mycelial growth rate at 25 degC after 4 days; type: functional, organism-based; conditions: isolate MLX1, 96 h
Monilinia laxa [20] = experiment: Fungicidal activity against Monilinia laxa isolate MLC2 assessed as reduction in mycelial growth rate at 25 degC after 4 days; type: functional, organism-based; conditions: isolate MLC2, 96 h
Monilinia laxa [21] = experiment: Fungicidal activity against Monilinia laxa isolate MLK24 assessed as reduction in mycelial growth rate at 1 to 10 ug/ml at 31 degC after 5 days; type: functional, organism-based
Monilinia laxa [22] = experiment: Fungicidal activity against Monilinia laxa isolate MLG6 assessed as reduction in mycelial growth rate at 25 degC after 4 days; type: functional, organism-based; conditions: isolate MLG6, 96 h
Monilinia laxa [23] = experiment: Fungicidal activity against Monilinia laxa isolate MLP2 assessed as mean mycelial colony diameter at 25 degC after 4 days; type: functional
Monilinia laxa [24] = experiment: Fungicidal activity against Monilinia laxa isolate MLC5 assessed as reduction in mycelial growth rate at 25 degC after 4 days; type: functional, organism-based; conditions: isolate MLC5, 96 h
Monilinia laxa [25] = experiment: Fungicidal activity against Monilinia laxa isolate MLBO1 assessed as reduction in mycelial growth rate at 1 to 10 ug/ml at 31 degC after 5 days; type: functional, organism-based
Monilinia laxa [26] = experiment: Fungicidal activity against Monilinia laxa isolate B1 assessed as reduction in mycelial growth rate at 25 degC after 4 days; type: functional, organism-based; conditions: isolate B1, 96 h
Monilinia laxa [27] = experiment: Fungicidal activity against Monilinia laxa isolate MLA1 assessed as virulence in prune fruits assessed as virulence treated 10 min prior to mycelial inoculation at 24 degC after 10 days relative to isolate MLX1by pathogenicity bioassay; type: functional
Monilinia laxa [28] = experiment: Fungicidal activity against Monilinia laxa isolate MLC2 assessed as mean number of conidia produced in the colony at 25 degC after 12 days by haemocytometer; type: functional
Monilinia laxa [29] = experiment: Fungicidal activity against Monilinia laxa isolate MLK2 assessed as reduction in mycelial growth rate at 25 degC after 4 days; type: functional, organism-based; conditions: isolate MLK2, 96 h
Monilinia laxa [30] = experiment: Fungicidal activity against Monilinia laxa isolate MLBO6 assessed as reduction in mycelial growth rate at 25 degC after 4 days; type: functional, organism-based; conditions: isolate MLBO6, 96 h
Monilinia laxa [31] = experiment: Fungicidal activity against Monilinia laxa isolate MLK12 assessed as mean number of conidia produced in the colony at 25 degC after 12 days by haemocytometer; type: functional
Monilinia laxa [32] = experiment: Fungicidal activity against Monilinia laxa isolate MLX4 assessed as reduction in mycelial growth rate at 1 to 10 ug/ml at 31 degC after 5 days; type: functional, organism-based
Monilinia laxa [33] = experiment: Fungicidal activity against Monilinia laxa isolate MLK1 assessed as reduction in mycelial growth rate at 1 to 10 ug/ml at 31 degC after 5 days; type: functional, organism-based
Monilinia laxa [34] = experiment: Fungicidal activity against Monilinia laxa isolate MLK5 assessed as reduction in mycelial growth rate at 1 to 10 ug/ml at 25 to 28 degC; type: functional, organism-based
Monilinia laxa [35] = experiment: Fungicidal activity against Monilinia laxa isolate MLC2 assessed as reduction in mycelial growth rate at 1 to 10 ug/ml at 28 degC after 8 days; type: functional, organism-based
Monilinia laxa [36] = experiment: Fungicidal activity against Monilinia laxa isolate MLX1 assessed as reduction in mycelial growth rate at 1 to 10 ug/ml at 25 to 28 degC; type: functional, organism-based
Monilinia laxa [37] = experiment: Fungicidal activity against Monilinia laxa isolate MLNS2 assessed as reduction in mycelial growth rate at 1 to 10 ug/ml at 31 degC after 5 days; type: functional, organism-based
Monilinia laxa [38] = experiment: Fungicidal activity against Monilinia laxa isolate MLK12 assessed as reduction in mycelial growth rate at 1 to 10 ug/ml at 31 degC after 5 days; type: functional, organism-based
Monilinia laxa [39] = experiment: Fungicidal activity against Monilinia laxa isolate MLK7 assessed as reduction in mycelial growth rate at 25 degC after 4 days; type: functional, organism-based; conditions: isolate MLK7, 96 h
Monilinia laxa [40] = experiment: Fungicidal activity against Monilinia laxa isolate MLBO2 assessed as mean mycelial colony diameter at 25 degC after 4 days; type: functional
Monilinia laxa [41] = experiment: Fungicidal activity against Monilinia laxa isolate KX1 assessed as reduction in mycelial growth rate at 1 to 10 ug/ml at 31 degC after 5 days; type: functional, organism-based
Monilinia laxa [42] = experiment: Fungicidal activity against Monilinia laxa isolate MLX1 assessed as reduction in mycelial growth rate at 1 to 10 ug/ml at 31 degC after 5 days; type: functional, organism-based

With COC(=O)Nc1nc2ccccc2[nH]1 [CARBENDAZIM] the inhibition (Monilinia laxa [1]) was “Active”, the EC50 (Monilinia laxa [2]) was 0.12 µg/mL (≈ 0.628 µM) and the EC50 (Monilinia laxa [3]) was 0.1 µg/mL (≈ 0.523 µM). The Activity (Monilinia laxa [4]) was 0%, the inhibition (Monilinia laxa [5]) was “Active” and the EC50 (Monilinia laxa [6]) was greater than 50 µg/mL. For the same compound, the Activity (Monilinia laxa [7]) was 5 /cm2, the inhibition (Monilinia laxa [8]) was “Active” and the EC50 (Monilinia laxa [9]) was 0.06 µg/mL (≈ 0.314 µM). For the same compound, the inhibition (Monilinia laxa [10]) was “inactive”, the Activity (Monilinia laxa [11]) was 4.4 /cm2 and the Activity (Monilinia laxa [12]) was 31 mm. For the same compound, the inhibition (Monilinia laxa [13]) was “inactive”, the inhibition (Monilinia laxa [14]) was “Active” and the inhibition (Monilinia laxa [15]) was “inactive”. The Activity (Monilinia laxa [16]) was 100%, the EC50 (Monilinia laxa [17]) was 0.11 µg/mL (≈ 0.575 µM) and the EC50 (Monilinia laxa [18]) was 0.08 µg/mL (≈ 0.418 µM). For the same compound, the EC50 (Monilinia laxa [19]) was greater than 50 µg/mL, the EC50 (Monilinia laxa [20]) was greater than 50 µg/mL and the inhibition (Monilinia laxa [21]) was “Active”. The EC50 (Monilinia laxa [22]) was 0.12 µg/mL (≈ 0.628 µM), the Activity (Monilinia laxa [23]) was 25.5 mm and the EC50 (Monilinia laxa [24]) was 0.11 µg/mL (≈ 0.575 µM). For the same compound, the inhibition (Monilinia laxa [25]) was “Active”, the EC50 (Monilinia laxa [26]) was greater than 50 µg/mL and the Activity (Monilinia laxa [27]) was 90.33%. For the same compound, the Activity (Monilinia laxa [28]) was 5 /cm2, the EC50 (Monilinia laxa [29]) was greater than 50 µg/mL and the EC50 (Monilinia laxa [30]) was 0.12 µg/mL (≈ 0.628 µM). For the same compound, the Activity (Monilinia laxa [31]) was 4.7 /cm2, the inhibition (Monilinia laxa [32]) was “Active” and the inhibition (Monilinia laxa [33]) was “Active”. For the same compound, the inhibition (Monilinia laxa [34]) was “inactive”, the inhibition (Monilinia laxa [35]) was “inactive” and the inhibition (Monilinia laxa [36]) was “inactive”. The inhibition (Monilinia laxa [37]) was “Active”, the inhibition (Monilinia laxa [38]) was “Active” and the EC50 (Monilinia laxa [39]) was 0.08 µg/mL (≈ 0.418 µM). For the same compound, the Activity (Monilinia laxa [40]) was 30.2 mm, the inhibition (Monilinia laxa [41]) was “Active” and the inhibition (Monilinia laxa [42]) was “Active”.
